Laboratory results taken from patent publication US8222448B2, “Processes for production of 2-bromo-2,2-difluoroethanol and 2-(alkylcarbonyloxy)-1, 1-difluoroethanesulfonic acid salt” (priority 2007, dated 2012).

Test: Solubility in propylene glycol methyl ether acetate
Assay type: physicochemical
Conditions: 1.0 g added to 100 g of propylene glycol methyl ether acetate, stirring
From the text: 1.0 g of sodium 2-(1′-adamantane)carbonyloxy-1,1-difluoroethanesulfonate synthesized in Example 8 was weighed and added to 100 g of propylene glycol methyl ether acetate, followed by stirring.

In the case of `O=C(OCC(F)(F)S(=O)(=O)[O-])C12CC3CC(CC(C3)C1)C2.c1ccc([S+](c2ccccc2)c2ccccc2)cc1` [Example 8, triphenylsulfonium 2-(1′-adamantane)carbonyloxy-1,1-difluoroethanesulfonate], the Solubility is reported as “completely dissolved”.
